In experiment [1] the test system is A549. In words: Antiproliferative activity against human A549 cells assessed as reduction in cell viability by MTT assay. It counts as functional, cell-based.
For experiment [2], the system named is MCF7. Briefly: Antiproliferative activity against human MCF7 cells assessed as reduction in cell viability by MTT assay. The experiment is classed as functional, cell-based.
Experiment [3] concerns L02. Briefly: Cytotoxicity against human L02 cells assessed as reduction in cell viability by MTT assay. It counts as cell-based. (In general: Tetrazolium assays rely on reduction of a dye to a coloured formazan, in cell work by metabolically active cells.)
The test system of experiment [4] is RKO. Briefly: Antiproliferative activity against human RKO cells assessed as reduction in cell viability by MTT assay. It counts as functional, cell-based.
Experiment [5] concerns Enterococcus faecalis. In words: Antimicrobial activity against Enterococcus faecalis ATCC 29212 by CLSI based two-fold serial dilution method. The experiment is classed as functional.
Experiment [6] relates to Bacillus thuringiensis. In words: Antibacterial activity against Bacillus thuringiensis BT01 by CLSI based two-fold serial dilution method. It counts as functional.
For experiment [7], the system named is HeLa. In words: Antiproliferative activity against human HeLa cells assessed as reduction in cell viability by MTT assay. It counts as functional, cell-based.
For experiment [8], the system named is Bacillus subtilis. Briefly: Antibacterial activity against Bacillus subtilis BS01 by CLSI based two-fold serial dilution method. It counts as functional.
Experiment [9] in a line: Cytotoxicity against HUVEC12 assessed as reduction in cell viability by MTT assay. Conditions: Homo sapiens.
Experiment [10] relates to Staphylococcus aureus. In words: Antibacterial activity against methicillin-resistant Staphylococcus aureus shhs-A1 by CLSI based two-fold serial dilution method. It counts as functional.
Experiment [11] has as its system Staphylococcus aureus. In words: Antibacterial activity against Staphylococcus aureus ATCC […] by CLSI based two-fold serial dilution method. It counts as functional. Conditions: ATCC 29213.
The subject of experiment [12] is HepG2. Briefly: Antiproliferative activity against human HepG2 cells assessed as reduction in cell viability by MTT assay. The experiment is classed as functional, cell-based.
For experiment [13], the system named is MGC-803. In words: Antiproliferative activity against human MGC803 cells assessed as reduction in cell viability by MTT assay. The experiment is classed as functional, cell-based.
The subject of experiment [14] is Staphylococcus aureus. In words: Antibacterial activity against Staphylococcus aureus 745524 by CLSI based two-fold serial dilution method. The experiment is classed as functional.

pIC50: −log10 of the molar value. In brackets after ≈: the same amount, converted by molar mass.

One may read the pIC50 as −log10 of the IC50, conventionally taken in molar units. Broadly, the MIC is the least concentration at which growth counts as inhibited.

As for `CSC1=C2C3=CC(=O)C(O)=C2[C@@H]2O[C@H](CC[C@H](C)/C=C(\C)C[C@@H](C)C[C@H](C)[C@]1(O)O3)[C@H](C)[C@H](O)[C@H]2C`, the pIC50 in experiment [1] was 5.17; in [2], 5.64; in [3] it was 5.66; in experiment [4], 5.42; in experiment [7] it was 5.27; in experiment [9], 5.22. The figures for the pIC50 in [12] and in experiment [13] were 5.17 and 5.05, respectively. For the same molecule, the MIC in experiment [5] was 0.5 mg/L (≈ 0.964 µM); in [6], 0.5 mg/L (≈ 0.964 µM); in [8] it was 2 mg/L (≈ 3.86 µM); in experiment [10], 1 mg/L (≈ 1.93 µM); in experiment [11], 0.5 mg/L (≈ 0.964 µM); in experiment [14] it was 1 mg/L (≈ 1.93 µM).

`C/C1=C\[C@@H](C)CC[C@H]2O[C@@H](C3=C(O)C(=O)C=C4O[C@](O)(C=C43)[C@@H](C)C[C@H](C)C1)[C@H](C)[C@@H](O)[C@H]2C`: the pIC50 in [1] is 5.10; in experiment [2] it was 5.29; in experiment [3] it was 5.13; in experiment [4] it was 5.21; in [7], 5.31; in [9], 5.22. In addition, the figures for the pIC50 in experiment [12] and in experiment [13] were 4.66 and 5.48, respectively. The MIC in experiment [5] worked out at 2 mg/L (≈ 4.23 µM); in experiment [6], 1 mg/L (≈ 2.12 µM); in [8], 2 mg/L (≈ 4.23 µM); in experiment [10] it was 2 mg/L (≈ 4.23 µM); in experiment [11], 0.5 mg/L (≈ 1.06 µM); in [14], 1 mg/L (≈ 2.12 µM).

In the case of `CC(=O)N[C@@H](CSC1=C2C3=CC(=O)C(O)=C2[C@@H]2O[C@H](CC[C@H](C)/C=C(\C)C[C@@H](C)C[C@H](C)[C@]1(O)O3)[C@H](C)[C@H](O)[C@H]2C)C(=O)O`, the pIC50 was 4.59 in experiment [1]; 4.89 in experiment [2]; 5.21 in experiment [3]; 4.47 in [4]; 5.15 in [7]; < 4.30 in experiment [9]. Besides, the pIC50 in experiment [12] was 4.36; in experiment [13] it was 5.15. The MIC in experiment [5] is 4 mg/L (≈ 6.31 µM); in [6], 2 mg/L (≈ 3.16 µM); in [8] it was 8 mg/L (≈ 12.6 µM); in experiment [10] it was 4 mg/L (≈ 6.31 µM); in [11] it was 1 mg/L (≈ 1.58 µM); in experiment [14], 2 mg/L (≈ 3.16 µM).

As to `CC1(C)S[C@@H]2[C@H](NC(=O)[C@H](N)c3ccccc3)C(=O)N2[C@H]1C(=O)O` [AMPICILLIN], the MIC in experiment [5] turned out to be 2 mg/L (≈ 5.72 µM); in experiment [6] it was 32 mg/L (≈ 91.6 µM); in experiment [8], 0.25 mg/L (≈ 0.715 µM); in experiment [10], 1 mg/L (≈ 2.86 µM); in experiment [11], 2 mg/L (≈ 5.72 µM).

On to `COc1cccc2c1C(=O)c1c(O)c3c(c(O)c1C2=O)C[C@@](O)(C(=O)CO)C[C@@H]3O[C@H]1C[C@H](N)[C@H](O)[C@H](C)O1` [DOXORUBICIN], for which the pIC50 in [2] was 6.10; in experiment [3], 5.07; in experiment [4], 5.82; in [7], 6.10; in experiment [9] it was 5.14; in experiment [12], 6.15. Besides, the pIC50 in experiment [13] was 5.44.

Regarding `NC[C@H]1O[C@H](O[C@H]2[C@H](O)[C@@H](O[C@H]3O[C@H](CO)[C@@H](O)[C@H](N)[C@H]3O)[C@H](N)C[C@@H]2N)[C@H](O)[C@@H](O)[C@@H]1O` [KANAMYCIN], the MIC was determined as 32 mg/L (≈ 66 µM) in [5]; 8 mg/L (≈ 16.5 µM) in [6]; 8 mg/L (≈ 16.5 µM) in experiment [8]; 64 mg/L (≈ 132 µM) in [10]; 16 mg/L (≈ 33 µM) in experiment [11]; 64 mg/L (≈ 132 µM) in [14].

Regarding `CN[C@H](CC(C)C)C(=O)N[C@H]1C(=O)N[C@@H](CC(N)=O)C(=O)N[C@H]2C(=O)N[C@H]3C(=O)N[C@H](C(=O)N[C@H](C(=O)O)c4cc(O)cc(O)c4-c4cc3ccc4O)[C@H](O)c3ccc(c(Cl)c3)Oc3cc2cc(c3O[C@@H]2O[C@H](CO)[C@@H](O)[C@H](O)[C@H]2O[C@H]2C[C@](C)(N)[C@H](O)[C@H](C)O2)Oc2ccc(cc2Cl)[C@H]1O` [VANCOMYCIN], the MIC in [6] was found to be 2 mg/L (≈ 1.38 µM); in [8], 1 mg/L (≈ 0.69 µM).

Source of the values: ChEMBL document CHEMBL4414662, “Cytotoxic Kendomycins Containing the Carbacylic Ansa Scaffold from the Marine-Derived Verrucosispora sp. SCSIO 07399” (J Nat Prod, 2019).
